US8258311B2, “Human protein tyrosine phosphatase inhibitors and methods of use” (Aerpio Therapeutics Inc., priority 2006, dated 2012)

Tests used:
hindlimb ischemia = test: Rat hindlimb model of collateral development: blood flow during treadmill exercise (microspheres); type: in vivo; conditions: for Blood Flow During exercise Calf (GPS): mean ± SE
Source text: The Rat hindlimb model is used to evaluate angiogenic properties of novel HPTPb inhibitors. Specifically to determine if there is enhanced blood flow to the collateral dependent region of the leg post ischemia when the animal is in an exercise challenged state. […] An initial surgery is done to create hindlimb ischemia and implant osmotic pumps essentially as previously described with minor alterations. […] Following induction, animals are transferred to a surgical mat and anesthesia is continued via a non-rebreathing circuit. A warming lamp is positioned above the rat and a rectal probe is placed to monitor the animal's body temperature. The groin areas bilaterally are clipped and prepared with alternating Betadine and alcohol scrubs (3×) and a sterile drape is placed over the rat. The left femoral artery is exposed through a skin incision and subsequently ligated in two positions 1 cm apart; distal to the inguinal ligament and proximal to the femoral circumflex artery. The skin is closed using either skin staples or Vetbond. The same procedure is repeated on the right side. […] Prior to implantation, osmotic pumps are filled with VEGF165 solution at a dose of 15 μg/kg/day, and primed overnight inside sterile saline beakers in a water bath (37° C.). Stretched PESO catheters coated with PPG (Poly propylene glycol Aldrich # 20-235-5) are attached using sterile technique and in accordance with manufacture's instructions the afternoon prior to surgery. For pump placement, an incision is made to expose the right jugular vein, an area is tunneled SubQ from the right side of the neck to the back and the pump is placed in the resulting SubQ pocket. The vessel is ligated with 4-0 silk, a cut is made in the vessel just distal to the tie and the catheter from the osmotic pump is threaded down stream (approx 2 cm) and secured with a second tie. The skin is closed in the same manner as above. Two weeks after the ligation surgery the rat underwent a second acute surgery to place indwelling catheters for microsphere measurements. Rats are anesthetized as described above. The animal is clipped, prepped, and EMLA cream is applied to each entry site. First an incision is made longitudinally at the ventral base of the tail using a 10 blade. A tapered PE 50 catheter is inserted approximately 3 cm into the ventral tail artery and anchored into place. The end of the catheter is then wrapped around the tail and tunneled SubQ over the back, exiting between the shoulder blades. Following tail artery cannulation, a midline neck incision is made to expose the left carotid artery for occlusive cannulation. A tapered PE 50 catheter is placed 3 cm into the carotid and the distal end is tunneled SubQ, exiting between the shoulder blades. The neck is closed with either skin stables or Vetbond and EMLA cream is applied. The exit site is closed around the catheters with a purse string suture stitch. The ends of the catheters are cauterized shut and the rat is allowed to recover from anesthesia for at least 4 hours. For blood flow measurements, rats are placed onto the treadmill and the catheters are connected to extension tubing via 22 gage male-male connectors. For microsphere withdrawals and blood pressure measurements, the tail artery catheter is connected to a syringe (coated with tween and heparin-), which is “T” Ed to a withdrawal pump and a pressure transducer. The carotid catheter is used for injecting the microspheres. The rat began running at speed 20 m/min and an elevation of 7°. […] The pump is set to stop at 90 seconds. The […] stopped, the extension lines are replaced and the animal's lines are flushed, and the animal allowed to rest. The syringe and lines are removed from the pump and the reference blood sample is place in a labeled tube for processing. […] At the completion of the second run, the animal is euthanized with 0.3 ml of Buthaneasia. Following euthanasia, tissues are removed, trimmed, weighed, recorded, and placed in marked tubes for processing. […]

[1] = Rat hindlimb model: blood pressure and heart rate; type: in vivo; conditions: for Blood Pressure Post-Exercise / Heart Rate Exercise / Heart Rate Post-Exercise / Heart Rate Pre-Exercise / Blood Pressure Exercise / Blood Pressure Pre-Exercise: mean ± SE; for Blood Pressure Pre-Exercise: two weeks after ligation
Source text: An initial surgery is done to create hindlimb ischemia and implant osmotic pumps essentially as previously described with minor alterations. […] Following induction, animals are transferred to a surgical mat and anesthesia is continued via a non-rebreathing circuit. A warming lamp is positioned above the rat and a rectal probe is placed to monitor the animal's body temperature. The groin areas bilaterally are clipped and prepared with alternating Betadine and alcohol scrubs (3×) and a sterile drape is placed over the rat. The left femoral artery is exposed through a skin incision and subsequently ligated in two positions 1 cm apart; distal to the inguinal ligament and proximal to the femoral circumflex artery. The skin is closed using either skin staples or Vetbond. The same procedure is repeated on the right side. […] Stretched PESO catheters coated with PPG (Poly propylene glycol Aldrich # 20-235-5) are attached using sterile technique and in accordance with manufacture's instructions the afternoon prior to surgery. For pump placement, an incision is made to expose the right jugular vein, an area is tunneled SubQ from the right side of the neck to the back and the pump is placed in the resulting SubQ pocket. The vessel is ligated with 4-0 silk, a cut is made in the vessel just distal to the tie and the catheter from the osmotic pump is threaded down stream (approx 2 cm) and secured with a second tie. The skin is closed in the same manner as above.
Two weeks after the ligation surgery the rat underwent a second acute surgery to place indwelling catheters for microsphere measurements. Rats are anesthetized as described above. The animal is clipped, prepped, and EMLA cream is applied to each entry site. First an incision is made longitudinally at the ventral base of the tail using a 10 blade. A tapered PE 50 catheter is inserted approximately 3 cm into the ventral tail artery and anchored into place. The end of the catheter is then wrapped around the tail and tunneled SubQ over the back, exiting between the shoulder blades. Following tail artery cannulation, a midline neck incision is made to expose the left carotid artery for occlusive cannulation. A tapered PE 50 catheter is placed 3 cm into the carotid and the distal end is tunneled SubQ, exiting between the shoulder blades. The neck is closed with either skin stables or Vetbond and EMLA cream is applied. The exit site is closed around the catheters with a purse string suture stitch. The ends of the catheters are cauterized shut and the rat is allowed to recover from anesthesia for at least 4 hours.
For blood flow measurements, rats are placed onto the treadmill and the catheters are connected to extension tubing via 22 gage male-male connectors. For microsphere withdrawals and blood pressure measurements, the tail artery catheter is connected to a syringe (coated with tween and heparin-), which is “T” Ed to a withdrawal pump and a pressure transducer. The carotid catheter is used for injecting the microspheres. The rat began running at speed 20 m/min and an elevation of 7°. One minute into the run the pump is turned on at a rate of 0.5 ml/min, ten seconds later 0.5 ml (1×10^6 spheres/mL) of florescent microspheres are infused into the carotid line followed by a 0.5 ml flush over 30 seconds. The pump is set to stop at 90 seconds. The tmill is stopped, the extension lines are replaced and the animal's lines are flushed, and the animal allowed to rest. The syringe and lines are removed from the pump and the reference blood sample is place in a labeled tube for processing. The withdrawal syringe and extension lines are flushed 3 times with 2% tween, waste is flushed the reference blood tube A new syringe and lines are place on the pump and the procedure is repeated with the animal running at a faster speed, (25 m/min) and a different microsphere color is injected. At the completion of the second run, the animal is euthanized with 0.3 ml of Buthaneasia.

[2] = Rat hindlimb model: body weight; type: in vivo; conditions: mean ± SE, in g (unit assumed)
PTP1B = molecular target: T1, PTP1B (Homo sapiens, UniProt P18031); test: PTP1B inhibition (IC50); type: biochemical
T1 sequence (P18031 1-435): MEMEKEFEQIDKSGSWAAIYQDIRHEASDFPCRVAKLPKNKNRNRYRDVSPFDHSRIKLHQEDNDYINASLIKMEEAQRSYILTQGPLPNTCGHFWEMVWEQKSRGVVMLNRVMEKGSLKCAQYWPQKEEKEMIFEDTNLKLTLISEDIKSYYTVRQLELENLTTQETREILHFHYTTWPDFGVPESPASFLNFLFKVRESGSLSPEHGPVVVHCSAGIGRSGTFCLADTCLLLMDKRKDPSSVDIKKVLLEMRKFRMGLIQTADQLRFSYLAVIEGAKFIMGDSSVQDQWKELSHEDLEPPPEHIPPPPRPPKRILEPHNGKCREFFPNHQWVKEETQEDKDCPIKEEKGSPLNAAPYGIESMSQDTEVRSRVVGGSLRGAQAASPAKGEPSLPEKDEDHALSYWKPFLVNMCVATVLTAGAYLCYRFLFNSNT

HPTPβ = HPTPβ (Homo sapiens, UniProt P23467); test: HPTPβ inhibition (IC50); type: biochemical
[3] = continuous SubQ infusion High 15 mg/kg/d
[4] = continuous SubQ infusion Low 5 mg/kg/d
[5] = continuous SubQ infusion High 15 mg/kg/d, in mmHg (unit assumed)

HPTPβ, sequence (P23467 23-1997): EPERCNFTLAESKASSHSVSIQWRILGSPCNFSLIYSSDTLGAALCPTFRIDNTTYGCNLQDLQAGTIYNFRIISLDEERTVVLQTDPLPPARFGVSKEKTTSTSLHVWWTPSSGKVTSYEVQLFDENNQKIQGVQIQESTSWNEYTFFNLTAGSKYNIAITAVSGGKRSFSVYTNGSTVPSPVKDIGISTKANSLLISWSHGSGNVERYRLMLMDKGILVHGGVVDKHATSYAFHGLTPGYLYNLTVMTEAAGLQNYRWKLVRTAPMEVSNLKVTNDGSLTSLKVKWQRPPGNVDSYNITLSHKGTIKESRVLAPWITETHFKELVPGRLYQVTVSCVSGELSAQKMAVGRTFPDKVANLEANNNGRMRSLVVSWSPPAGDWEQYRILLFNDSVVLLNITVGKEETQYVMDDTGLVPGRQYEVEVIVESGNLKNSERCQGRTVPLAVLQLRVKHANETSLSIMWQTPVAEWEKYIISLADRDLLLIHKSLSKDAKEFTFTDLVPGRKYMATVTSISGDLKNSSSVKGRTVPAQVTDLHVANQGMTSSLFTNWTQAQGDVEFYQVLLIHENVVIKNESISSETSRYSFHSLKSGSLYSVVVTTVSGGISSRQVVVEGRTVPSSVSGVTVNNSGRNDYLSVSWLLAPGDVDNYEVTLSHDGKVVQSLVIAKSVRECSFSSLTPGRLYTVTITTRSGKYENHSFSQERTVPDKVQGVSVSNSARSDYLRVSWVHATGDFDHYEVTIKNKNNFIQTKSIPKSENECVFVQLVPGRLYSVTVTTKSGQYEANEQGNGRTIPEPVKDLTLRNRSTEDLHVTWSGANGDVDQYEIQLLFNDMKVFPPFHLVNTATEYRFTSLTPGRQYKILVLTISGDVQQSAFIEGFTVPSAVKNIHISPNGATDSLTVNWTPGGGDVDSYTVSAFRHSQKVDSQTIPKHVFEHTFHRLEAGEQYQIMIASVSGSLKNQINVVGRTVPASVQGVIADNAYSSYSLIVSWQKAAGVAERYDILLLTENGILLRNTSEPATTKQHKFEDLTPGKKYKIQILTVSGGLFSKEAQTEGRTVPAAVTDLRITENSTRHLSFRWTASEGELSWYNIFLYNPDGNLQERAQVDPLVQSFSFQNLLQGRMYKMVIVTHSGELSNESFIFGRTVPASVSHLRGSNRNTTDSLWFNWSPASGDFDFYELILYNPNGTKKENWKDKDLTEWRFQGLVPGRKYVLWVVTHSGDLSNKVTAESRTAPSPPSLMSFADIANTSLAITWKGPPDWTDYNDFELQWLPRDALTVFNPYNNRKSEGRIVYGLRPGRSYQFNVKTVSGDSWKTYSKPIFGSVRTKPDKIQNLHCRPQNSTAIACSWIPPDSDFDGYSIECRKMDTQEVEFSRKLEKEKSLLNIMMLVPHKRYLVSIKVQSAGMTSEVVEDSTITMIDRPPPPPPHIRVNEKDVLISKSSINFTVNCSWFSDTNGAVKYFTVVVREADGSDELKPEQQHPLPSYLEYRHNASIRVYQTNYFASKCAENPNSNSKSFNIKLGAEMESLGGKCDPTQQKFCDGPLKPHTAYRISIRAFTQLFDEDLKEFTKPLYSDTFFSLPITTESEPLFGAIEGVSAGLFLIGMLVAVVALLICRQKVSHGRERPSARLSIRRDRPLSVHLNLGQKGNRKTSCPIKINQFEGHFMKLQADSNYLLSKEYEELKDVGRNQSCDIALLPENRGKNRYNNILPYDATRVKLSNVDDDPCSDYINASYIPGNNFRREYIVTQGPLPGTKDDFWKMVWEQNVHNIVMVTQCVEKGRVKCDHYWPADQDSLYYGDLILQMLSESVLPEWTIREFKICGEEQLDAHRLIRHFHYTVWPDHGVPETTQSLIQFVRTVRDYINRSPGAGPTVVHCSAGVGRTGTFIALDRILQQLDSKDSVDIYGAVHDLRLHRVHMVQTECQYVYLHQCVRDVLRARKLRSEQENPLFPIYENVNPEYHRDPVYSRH

With VEGF the “Blood Flow During exercise Calf (GPS)” value (hindlimb ischemia; VEGF 15 μg/kg/d) was 76 ± 1.1 ml/min/100 g and the “GPS blood flow over the Vehicle control groups” value (hindlimb ischemia; VEGF treatment groups) was “significant improvement”.
For `CCc1csc([C@H](Cc2ccc(NS(=O)(=O)O)cc2)NC(=O)[C@H](Cc2ccccc2)NC(=O)OC(C)(C)C)n1` [4-{(S)-2-[(S)-2-(tert-Butoxycarbonylamino)-3-phenylpropanamido]-2-(4-ethylthiazol-2-yl)ethyl}phenylsulfamic acid], the “Calf blood flow as compared to vehicle” value (hindlimb ischemia; SubQ continuous infusion, both doses (5 mg/kg/d and 15 mg/kg/d)) was “significant improvement”, the “Blood Flow During exercise Calf (GPS)” value (hindlimb ischemia; [3]) was 75 ± 1.7 ml/min/100 g and the “Blood Flow During exercise Calf (GPS)” value (hindlimb ischemia; [4]) was 69 ± 2.0 ml/min/100 g. For the same compound, the “Calf blood flow response relative to VEGF” value (hindlimb ischemia; lower dose (5 mg/kg/d)) was “did not elicit a maximal VEGF response”, the “Blood pressures of the treatment groups” value ([1]; compared with VEGF and/or Vehicle groups) was “lower than the VEGF and/or Vehicle groups” and the “Blood Pressure Post-Exercise” value [1, 3] was 133 ± 3.7. The “Heart Rate Exercise” value [1, 3] was 456 ± 13.0, the “Heart Rate Post-Exercise” value [1, 3] was 462 ± 14.8 and the “Heart Rate Pre-Exercise” value [1, 3] was 428 ± 13.5. For the same compound, the “Blood Pressure Exercise” value [1, 5] was 144 ± 4.6, the “Blood Pressure Pre-Exercise” value [1, 5] was 137 ± 4.5 and the “Blood Pressure Exercise” value [1, 4] was 142 ± 3.2. The “Heart Rate Exercise” value [1, 4] was 487 ± 10.1, the “Heart Rate Post-Exercise” value [1, 4] was 465 ± 18.8 and the “Heart Rate Pre-Exercise” value [1, 4] was 429 ± 19.8. The “Blood Pressure Post-Exercise” value ([1]; continuous SubQ infusion Low 5 mg/kg/d, in mmHg (unit assumed)) was 135 ± 3.1, the “Blood Pressure Pre-Exercise” value [1, 4] was 132 ± 3.9 and the “Initial Body Wt” value ([2]; High 15 mg/kg/d group) was 364 ± 4.8. The “Initial Body Wt” value ([2]; Low 5 mg/kg/d group) was 365 ± 4.8, the “Ending Body Wt” value [2, 3] was 409 ± 5.5 and the “Ending Body Wt” value [2, 4] was 413 ± 5.6.
For “(S)-4-(2-(tert-Butoxycarbonylamino)-2-(2-pivalamidothiazol-4-yl)ethyl)phenylsulfamic acid”, the IC50 (PTP1B) was 9120 nM and the IC50 (HPTPβ) was 555 nM.
Compound `CCc1csc([C@H](Cc2ccc(NS(=O)(=O)O)cc2)NC(=O)[C@H](CC(C)C)NC(=O)OC(C)(C)C)n1` [4-{(S)-2-[(S)-2-(tert-Butoxycarbonylamino)-4-methylpentanamido]-2-(4-ethylthiazol-2-yl)ethyl}phenylsulfamic acid] has an IC50 (PTP1B) of 480 nM and an IC50 (HPTPβ) of 1 nM.
With `COC(=O)N[C@@H](Cc1ccccc1)C(=O)N[C@@H](Cc1ccc(NS(=O)(=O)O)cc1)c1nc(C)cs1` [4-{(S)-2-[(S)-2-(Methoxycarbonylamino)-3-phenylpropanamido]-2-(4-methylthiazol-2-yl)ethyl}phenylsulfamic acid] the IC50 (PTP1B) was 480 nM and the IC50 (HPTPβ) was 1 nM.
For `COC(=O)N[C@@H](Cc1ccccc1)C(=O)N[C@@H](Cc1ccc(NS(=O)(=O)O)cc1)c1csc(CS(=O)(=O)C(C)(C)C)n1` [4-{(S)-2-[2-(tert-Butylsulfonylmethyl)thiazol-4-yl]-2-[(S)-2-(methoxycarbonylamino)-3-phenylpropanamido]ethyl}phenylsulfamic acid], the IC50 (PTP1B) was 1210 nM and the IC50 (HPTPβ) was 2 nM.
Work on `COC(=O)N[C@@H](Cc1ccccc1)C(=O)N[C@@H](Cc1ccc(NS(=O)(=O)O)cc1)c1csc(CS(=O)(=O)c2ccc(Cl)cc2)n1` [4-{(S)-2-{2-[(4-Chlorophenylsulfonyl)methyl]thiazol-4-yl}-2-[(S)-2-(methoxycarbonylamino)-3-phenylpropanamido]ethyl}phenylsulfamic acid] yielded an IC50 (PTP1B) of 2540 nM and an IC50 (HPTPβ) of 0.08 nM.
